The text below walks through data of US12325022B2, “Microfluidic device, system, and method for the study of organisms” (ECOLE POLYTECHNIQUE FEDERALE DE LAUSANNE (EPFL), priority 2014, dated 2025).

The subject of experiment [1] is N2 wild-type C. elegans worms and their embryos. In words: on-chip 5-FU treatment of worms with monitoring of embryo development in the incubator array. The format is in vivo. The note with it: worms treated on-chip from L4 stage with 2 mM in M9 buffer at 25° C.; embryos monitored for 12 h (array pictures at 600 minutes).
Description: Bar graphs are expressed as mean+SEM, *** p≤0.001.
Wild-type worms were isolated in the culture chamber at the L4 larval stage and treated on-chip with 5-FU at a concentration of 2 mM, while being cultured at 25° C. towards the adult stage. Subsequently, embryos were transferred to the incubator array and monitored for 12 h.
Experiment [2] has as its system wild-type C. elegans. Conditions: sigmoid fit; paralyzed worms between 30 and 40 minutes after tetramisole injection.
Description: (§1) The aim of the experiment was to correlate the concentration of the drug with the number of paralyzed worms over time, and to trace a dose-response curve for this drug.
(§2) L1 specimens of wild-type C. elegans have been injected in the chip with the above-described protocol and fed them for 2-3 days to get adult worms. […] The wells were plugged in the inlet and sucked with a syringe from the outlet at total outflows between 100-200 nL/s for 40-80 minutes. The procedure was recorded in real-time for all the chambers at the same time by using a stereo-microscope. It was used a suitable ring-shape back-illumination to enhance the contrast and make the adult worms much lighter than the background.
(§3) Image analysis was done afterwards directly on the video recorded: the number of paralyzed worms per chamber were counted every 10 minutes from the beginning of the drug injection, and the total percentage of paralyzed worms per channel (1 channel=1 concentration) was calculated.
In experiment [3] the test system is wild-type C. elegans. In words: whole plant or invertebrate. Conditions: Caenorhabditis elegans, read-out: EC50 of dose-response curve (mean percentage of paralyzed worms).
Description: as §1, §2, §3

Broadly, the EC50 is the concentration at which the effect is half-maximal.

“Also recorded” adds a separate entry of the source.

For `O=c1[nH]cc(F)c(=O)[nH]1` [5-FU, 5-fluorouracil], in experiment [1], the “development of embryos laid by treated worms” value is given as “All embryos prematurely died; also recorded: blocked development”.

On to `c1ccc(C2CN3CCSC3=N2)cc1` (stereo not drawn) [tetramisole], for which the “Hill slope of dose-response curve (paralyzed worms)” value in experiment [2] is “about 0.02 μM”. In addition, the EC50 in experiment [3] is approximately 57 µM.
